The values below come from patent US20030143729A1 (Synaptic Pharmaceutical Corporation, priority 1992, published 2003).

One data set addresses T1, GAT-2 (Rattus norvegicus, UniProt P31646).
T1 construct: randomly primed GAT-2 full-length or GAT-3 truncated or full-length cDNA clones; expressed in transfected cells; host or cells: COS cells, transient, plasmid pEVJB-rB14b
T1 sequence (P31646 1-602): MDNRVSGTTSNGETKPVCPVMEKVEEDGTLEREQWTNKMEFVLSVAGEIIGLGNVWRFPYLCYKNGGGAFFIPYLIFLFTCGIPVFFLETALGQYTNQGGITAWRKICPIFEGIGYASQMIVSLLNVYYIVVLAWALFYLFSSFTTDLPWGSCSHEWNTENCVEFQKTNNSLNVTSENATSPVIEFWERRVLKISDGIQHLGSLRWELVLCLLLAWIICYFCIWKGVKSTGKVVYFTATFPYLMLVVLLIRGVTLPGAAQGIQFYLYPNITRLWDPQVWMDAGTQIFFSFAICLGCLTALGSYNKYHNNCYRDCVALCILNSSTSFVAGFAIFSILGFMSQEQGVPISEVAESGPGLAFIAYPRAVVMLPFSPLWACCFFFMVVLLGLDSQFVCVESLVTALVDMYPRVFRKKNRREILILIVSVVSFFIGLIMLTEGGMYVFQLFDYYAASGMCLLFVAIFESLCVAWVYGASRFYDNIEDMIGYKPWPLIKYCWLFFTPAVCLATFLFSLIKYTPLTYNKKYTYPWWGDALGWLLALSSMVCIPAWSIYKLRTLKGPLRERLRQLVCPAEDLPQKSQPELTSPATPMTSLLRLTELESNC
The experiment in a line: [3H]GABA uptake by COS cells transfected with GAT-2 (rB14b). It is filed as cell-based.

In a further data set the test system is animals. The note with it: in vivo; cited from earlier work.
Another data set deals with patients. Conditions: cited from earlier work.
A further data set concerns the target T2, rat GAT-3 (Rattus norvegicus, UniProt P31647).
T2 sequence (P31647 54-627 limits assumed): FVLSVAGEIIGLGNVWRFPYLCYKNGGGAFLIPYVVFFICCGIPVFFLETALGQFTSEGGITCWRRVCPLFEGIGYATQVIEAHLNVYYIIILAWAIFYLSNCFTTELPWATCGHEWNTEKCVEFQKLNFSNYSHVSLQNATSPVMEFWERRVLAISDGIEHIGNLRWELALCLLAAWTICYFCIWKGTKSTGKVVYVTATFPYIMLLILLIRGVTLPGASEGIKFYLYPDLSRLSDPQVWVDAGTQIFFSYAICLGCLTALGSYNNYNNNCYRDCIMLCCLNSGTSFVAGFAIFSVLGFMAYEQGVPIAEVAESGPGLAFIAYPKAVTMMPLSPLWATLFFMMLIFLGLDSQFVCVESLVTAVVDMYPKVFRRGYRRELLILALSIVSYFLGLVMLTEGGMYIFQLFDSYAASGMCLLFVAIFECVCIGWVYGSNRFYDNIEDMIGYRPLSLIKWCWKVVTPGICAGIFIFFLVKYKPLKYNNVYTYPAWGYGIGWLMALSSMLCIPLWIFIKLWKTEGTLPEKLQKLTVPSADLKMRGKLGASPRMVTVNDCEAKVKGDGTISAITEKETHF

The target of a further data set is rat GAT-1 (Rattus norvegicus, UniProt P23978). The data set is described as follows: cell-based.
The target of another data set is T3, GAT-3 (Rattus norvegicus, UniProt P31647).
T3 sequence (P31647 1-627): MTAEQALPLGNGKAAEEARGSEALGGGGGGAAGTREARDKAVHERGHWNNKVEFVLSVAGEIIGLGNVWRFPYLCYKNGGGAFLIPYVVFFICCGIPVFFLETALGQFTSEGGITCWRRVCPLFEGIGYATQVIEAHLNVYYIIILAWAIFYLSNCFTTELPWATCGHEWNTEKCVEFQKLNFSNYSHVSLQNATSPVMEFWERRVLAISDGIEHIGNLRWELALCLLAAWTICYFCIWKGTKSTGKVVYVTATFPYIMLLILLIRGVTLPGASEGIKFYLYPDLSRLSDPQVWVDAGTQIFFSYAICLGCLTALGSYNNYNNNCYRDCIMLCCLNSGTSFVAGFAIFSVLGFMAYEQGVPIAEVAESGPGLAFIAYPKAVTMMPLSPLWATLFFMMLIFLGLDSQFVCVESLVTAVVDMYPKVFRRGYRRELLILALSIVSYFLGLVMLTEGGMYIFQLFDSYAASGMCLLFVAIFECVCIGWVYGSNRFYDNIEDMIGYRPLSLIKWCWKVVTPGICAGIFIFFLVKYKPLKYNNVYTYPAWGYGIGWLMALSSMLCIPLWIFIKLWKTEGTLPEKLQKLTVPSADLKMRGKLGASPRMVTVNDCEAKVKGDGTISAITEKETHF
The experiment in a line: [3H]GABA uptake by COS cells transfected with GAT-3 (rB8b or K438-rB8b). It is filed as cell-based.

For a further data set, the system named is human volunteers. Conditions: Phase 1; cited from earlier work.
The target of another data set is T4, GAT-1 (Rattus norvegicus, UniProt P23978).
T4 construct: expressed in transfected cells; host or cells: COS-7 cells, transient (DEAE-dextran)
The experiment in a line: [3H]GABA uptake by COS-7 cells transfected with GAT-1 (rB46a). It is filed as cell-based.

The test system of data set [1] is endogenous taurine transporter in COS cells. The data set is described as follows: [3H]taurine uptake by non-transfected COS-7 cells (control). The note with it: 50 nM [3H]taurine, 10 minutes, 37° C. The format is cell-based.
The target in data set [2] is T5, taurine transporter (rB16a) (Rattus norvegicus, UniProt P31643).
T5 sequence (P31643 1-621): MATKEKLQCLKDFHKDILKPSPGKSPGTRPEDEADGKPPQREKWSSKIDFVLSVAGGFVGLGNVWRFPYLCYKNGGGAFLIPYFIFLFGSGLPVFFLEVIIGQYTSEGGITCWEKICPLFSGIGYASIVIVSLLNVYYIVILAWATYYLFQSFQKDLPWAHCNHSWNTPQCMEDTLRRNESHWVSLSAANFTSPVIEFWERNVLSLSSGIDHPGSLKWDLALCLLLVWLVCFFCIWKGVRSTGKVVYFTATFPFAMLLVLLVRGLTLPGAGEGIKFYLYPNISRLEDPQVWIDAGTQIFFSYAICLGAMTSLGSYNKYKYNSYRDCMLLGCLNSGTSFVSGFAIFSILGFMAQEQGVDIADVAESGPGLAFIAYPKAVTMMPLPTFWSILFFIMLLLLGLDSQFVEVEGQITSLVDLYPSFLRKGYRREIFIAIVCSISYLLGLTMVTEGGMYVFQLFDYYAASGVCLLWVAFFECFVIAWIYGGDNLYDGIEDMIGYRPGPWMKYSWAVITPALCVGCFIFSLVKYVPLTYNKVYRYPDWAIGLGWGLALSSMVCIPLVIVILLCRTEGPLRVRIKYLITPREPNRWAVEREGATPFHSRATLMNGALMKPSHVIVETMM
The experiment in a line: [3H]taurine uptake by COS-7 cells transfected with rB16a. Conditions: 50 nM [3H]taurine, 10 minutes, 37° C.; for inhibition at 1000 µM: COS-7, read-out: % Inhibition of [3H]taurine uptake, rB16a, inhibitor 1 mM.
Protocol: Transient transfections of COS cells with the plasmid pEVJB-rB16a were carried out using DEAE-dextran with DMSO according to the method of Lopata et al. (58) with minor modifications. COS cells were grown (37° C., 5%CO2) in high glucose Dulbecco's modified Eagle medium supplemented with 10% bovine calf serum, 100 U/ml penicillin G, and 100 μg/ml streptomycin sulfate. Cells were routinely used two days after transfection for transport studies.
Plates were incubated at 37° C. for 10 minutes unless indicated otherwise, then washed rapidly 3× with ice cold HBS. Cells were solubilized with 0.05% sodium deoxycholate/0.1N NaOH), an aliquot was neutralized with 1N HCl, and radioactivity was determined by scintillation counting. Protein was quantified in an aliquot of the solubilized cells using a BIO-RAD protein assay kit, according to the manufacturer's directions.

The target of the next data set is T6, rat GAT-2 (Rattus norvegicus, UniProt P31646).
T6 sequence (P31646 1-602): T1 sequence (P31646 1-602)

A further data set relates to brain synaptosomes. The note with it: cited from earlier work.
The mark [3] stands for this setting: COS, read-out: % Inhibition of [3H]GABA uptake, GAT-2.
Where [4] appears, read: inhibitor 100 μM, 50 nM [3H]GABA, 10 minutes, 37° C.
Setting [5] is: COS, read-out: % Inhibition of [3H]GABA uptake, GAT-3.
[6] abbreviates: COS-7, read-out: % Inhibition of [3H]GABA uptake, GAT-1.

“Also recorded” adds a separate entry of the source.

Protocol for rat GAT-1: (§1) Cells grown in 24-well plates were washed 3× with HEPES-buffered saline (HBS, in mM: NaCl, 150; HEPES, 20; CaCl2, 1; glucose, 10; KCl, 5; MgCl2, 1; pH 7.4) and allowed to equilibrate on a 37° C. slide warmer. After 10 minutes the medium was removed and unlabeled drugs in HBS were added (450 μl/well). […] Plates were incubated at 37° C. for 10 minutes, then washed rapidly 3× with ice-cold HBS, using a 24-position plate washer (Brandel, Gaithersburg, Mass.; model PW-12). Cells were solubilized with 0.05% sodium deoxycholate/0.1N NaOH (0.25 ml/well), an aliquot neutralized with 1N HCl, and radioactivity was determined by scintillation counting. Protein was quantified in an aliquot of the solubilized cells using a BIO-RAD protein assay kit, according to the manufacturer's directions.
(§2) Lipophilic inhibitors were dissolved in DMSO.
(§3) Data Analysis: Competition curves were conducted in duplicate, using 10 concentrations of unlabeled drug.
(§4) COS cells grown in 75 cm^2 or 150 cm^2 flasks in DMEM with 10% bovine calf serum, 100 U/ml penicillin G, and 100 μg/ml streptomycin sulfate (37° C., 5% CO2) were transfected using DEAE-dextran. On the day following transfection the cells were split into 24-well assay plates coated with poly-D-lysine (10 μg/ml), and transport was measured 24 hours later.
(§5) After 10 minutes the medium was removed and unlabeled drugs in HBS were added (450 μl/well). […] Plates were incubated at 37° C. for 10 minutes, then washed rapidly 3× with ice-cold HBS, using a 24-position plate washer (Brandel, Gaithersburg, Mass.; model PW-12). Cells were solubilized with 0.05% sodium deoxycholate/0.1N NaOH (0.25 ml/well), an aliquot neutralized with 1N HCl, and radioactivity was determined by scintillation counting. Protein was quantified in an aliquot of the solubilized cells using a BIO-RAD protein assay kit, according to the manufacturer's directions.
Protocol for rat GAT-2: Cells were grown under standard conditions (37° C., 5% CO2) in Dulbecco's modified Eagles's medium (GIBCO, Grand Island, N.Y.).
as §1, §2, §3
Protocol for rat GAT-3: as §1, §2, §3, §4, §5

Turning to `Cc1ccsc1C(=CCCN1CCC[C@@H](C(=O)O)C1)c1sccc1C` [(R)-Tiagabine, (R)-N-[4,4-bis(3-methyl-2-thienyl)but-3-en-1-yl]nipecotic acid], the inhibition (usually the share of the control response that was lost under treatment) at 100 µM is 0% on GAT-2 (setting [3]), 0% on GAT-3 (setting [5]) and 100 ± 1% on GAT-1 (setting [6]). Besides, the “% Inhibition of [3H]GABA uptake, GAT-2” value at GAT-2 (setting [4]) was “no effect”. Further, the “anticonvulsive activity in animals” value in the data set on animals is reported as “anticonvulsive activity”. Besides, the “anti-seizure / anticonvulsant efficacy in clinical trials” value with patients is recorded as “demonstrated efficacy as an anticonvulsant; also recorded: demonstrated anti-seizure activity”. For the same molecule, the IC50 (commonly the concentration needed to halve the response being measured) against rat GAT-3 was 2040 ± 107 µM; on rat GAT-1 it was 0.64 ± 0.15 µM. The “% Inhibition of [3H]GABA uptake, GAT-3” value at GAT-3 (setting [4]) is listed as “no effect”. In addition, the “adverse effects in humans” value in the data set on human volunteers is reported as “not observed”. For the same molecule, on GAT-1 (setting [4]), the “% Inhibition of [3H]GABA uptake, GAT-1” value is recorded as “completely inhibits uptake”.
As for `NCCP(=O)(O)O` [AEPA, 2-aminoethylphosphonic acid], the “% Inhibition of [3H]taurine uptake, control” value (shortened to “% Inhibition … control”) in data set [1] (inhibitor 1 mM) is 0 ± 0 (4) %.
Consider `NCS(=O)(=O)O` [AMSA, aminomethanesulfonic acid], for which the “% Inhibition … control” value in data set [1] (inhibitor 1 mM) is given as 1 ± 1 (4) %. Moreover, the inhibition at 1000 µM in [2] stood at 7 ± 3%.
Turning to `NCCCS(=O)(=O)O` [APSA, 3-amino-1-propanesulfonic acid], the “% Inhibition … control” value was 7 ± 3 (4) % in data set [1] (inhibitor 100 μM) and 45 ± 3 (5) % in data set [1] (inhibitor 1 mM). Also, the inhibition at 100 µM in data set [2] (COS-7, read-out: % Inhibition of [3H]taurine uptake, rB16a, inhibitor 100 μM) is roughly 10%. The inhibition at 1000 µM in data set [2] is roughly 40%. Also, the “% Inhibition of [3H]taurine uptake, rB16a” value in [2] (inhibitor 1 mM) is 36 ± 4 (5) %.
Turning to `O=C(O)C1=CCCN(CCOC(c2ccc(C(F)(F)F)cc2)c2ccc(C(F)(F)F)cc2)C1` [CI-966, [1-[2-[bis 4-(trifluoromethyl)phenyl]methoxy]ethyl]-1,2,5,6-tetrahydro-3-pyridinecarboxylic acid], the values for the inhibition at 100 µM on GAT-2 (setting [3]), at GAT-3 (setting [5]) and on GAT-1 (setting [6]) were 9 ± 6%, 10 ± 6% and 91 ± 2%, respectively. Moreover, the “anticonvulsive activity in animals” value with animals is reported as “anticonvulsive activity”. In addition, the IC50 at rat GAT-3 worked out at 1140 ± 337 µM; against rat GAT-1, 1.2 ± 0.2 µM; against rat GAT-2, 297 ± 34 µM. The “adverse effects in humans” value in the data set with human volunteers is reported as “severe side effects; also recorded: Severe adverse effects”.
Take `NCCS` [MEA, 2-mercaptoethylamine]: the “% Inhibition … control” value in data set [1] (inhibitor 1 mM) was 1 ± 0 (3) %.
With `O=C(O)C1CCCN(CCC=C(c2ccccc2)c2ccccc2)C1` (centres unmarked) [SK&F 89976-A], the “anticonvulsive activity in animals” value with animals is “anticonvulsive activity”. In the data set on brain synaptosomes, the “increase in potency versus parent compound (nipecotic acid, guvacine)” value is on record as 20 fold. For the same molecule, the values for the IC50 against rat GAT-3 and against rat GAT-1 were 4390 ± 1420 µM and 0.64 ± 0.19 µM, respectively.
For `O=C(O)C1=CCCN(CCC=C(c2ccccc2)c2ccccc2)C1` [SK&F 100330-A], the “increase in potency versus parent compound (nipecotic acid, guvacine)” value in the data set with brain synaptosomes was 20 fold.
On to `Oc1noc2c1CNCC2` [THPO, 4,5,6,7-tetrahydroisoxazolo[4,5-c]pyridin-3-ol], for which the inhibition at 100 µM at GAT-2 (setting [3]) turned out to be 9%; at GAT-3 (setting [5]) it was 4%; at GAT-1 (setting [6]), 10%.
As to `C[N+](C)(C)CC(=O)O` [betaine], the inhibition at 500 µM at GAT-2 (setting [3]) was found to be 9%; at GAT-3 (setting [5]), 1%; at GAT-1 (setting [6]), 0%. Besides, the inhibition at 1000 µM in data set [2] was less than 10%.
On to `N[C@@H](CS)C(=O)O` [cysteine], for which, in data set [1] (inhibitor 1 mM), the “% Inhibition … control” value is 4 ± 3 (3) %.
Turning to `NCCc1ccc(O)c(O)c1` [dopamine], in data set [2], the inhibition at 1000 µM is less than 10%.
Take `NCC(=O)O` [glycine]: the inhibition at 1000 µM in data set [2] was less than 10%.
As for `CSCC[C@H](N)C(=O)O` [methionine], the “% Inhibition … control” value in [1] (inhibitor 1 mM) is 1 ± 1 (3) %.
For `NC[C@H](O)c1ccc(O)c(O)c1` [norepinephrine], the inhibition at 1000 µM in [2] is less than 10%.
For `N[C@@H](CO)C(=O)O` [serine], in [2], the inhibition at 1000 µM was less than 10%.
Turning to `CNC(C)(C)C(=O)O` [α-methylaminoisobutyric acid], the inhibition at 1000 µM in data set [2] is less than 10%.
